Data published in patent US10294202B2, “Pyrrolidinones as herbicides” (FMC Corporation, priority 2013, dated 2019).

Tests used:
dayflower, VA = experiment: Test E preemergence herbicide test; type: in vivo, Commelina virginica; design: key: 0 = no effect, 100 = complete control
Source text: (§1) Seeds of plant species selected from corn (Zea mays), soybean (Glycine max), velvetleaf (Abutilon theophrasti), lambsquarters (Chenopodium album), wild poinsettia (Euphorbia heterophylla), pigweed, palmer (palmer pigweed, Amaranthus palmeri), waterhemp (common waterhemp, Amaranthus rudis), surinam grass (Brachiaria decumbens), crabgrass, large (large crabgrass, Digitaria sanguinalis), crabgrass, Brazil (Brazilian crabgrass, Digitaria horizontalis), panicum, fall (fall panicum, Panicum dichotomiflorum), foxtail, giant (giant foxtail, Setaria faberii), foxtail, green (green foxtail, Setaria viridis), goosegrass (Eleusine indica), johnsongrass (Sorghum halepense), ragweed (common ragweed, Ambrosia elatior), barnyardgrass (Echinochloa crus-galli), sandbur (southern sandbur, Cenchrus echinatus), arrowleaf […] rhombifolia), ryegrass, Italian (Italian ryegrass, Lolium multiflorum), dayflower, VA (Virginia dayflower, Commelina virginica), field bindweed (Convolvulus arvensis), morningglory (Ipomoea coccinea), nightshade (eastern black nightshade, Solanum ptycanthum), kochia (Kochia scoparia), nutsedge, yellow (yellow nutsedge, Cyperus esculentus), cocklebur (common cocklebur, Xanthium strumarium), smartweed (ladysthumb smartweed, Polygonum Persicaria) and beggarticks (hairy beggarticks, Bidens pilosa), were planted into a silt loam soil and treated preemergence with test chemicals formulated in a non-phytotoxic solvent mixture which included a surfactant. Treated plants and controls were maintained in a greenhouse for 21 days, after which time all species were compared to controls and visually evaluated. Plant response ratings, summarized in Table E, are based on a scale of 0 to 100 where 0 is no effect and 100 is complete control. A dash (-) response means no test result.

waterhemp = experiment: Test E preemergence herbicide test; type: in vivo, Amaranthus rudis; design: key: 0 = no effect, 100 = complete control
Source text: as §1

In the case of O=C1NCC(c2ccc(F)cc2)C1C(=O)Nc1ccccc1F (racemic) [Compound 16], the “Plant response rating, Dayflower, VA” value (dayflower, VA; 16 g ai/ha) was 0, the “Plant response rating, Dayflower, VA” value (dayflower, VA; 62 g ai/ha) was 0 and the “Plant response rating, Dayflower, VA” value (dayflower, VA; 125 g ai/ha) was 0. The “Plant response rating, Waterhemp” value (waterhemp; 16 g ai/ha) was 0, the “Plant response rating, Waterhemp” value (waterhemp; 31 g ai/ha) was 0 and the “Plant response rating, Waterhemp” value (waterhemp; 62 g ai/ha) was 0. For the same compound, the “Plant response rating, Waterhemp” value (waterhemp; 125 g ai/ha) was 0 and the “Plant response rating, Waterhemp” value (waterhemp; 250 g ai/ha) was 0.
For O=C1NCC(c2cccc(Br)c2)C1C(=O)Nc1ccccc1F (centres unmarked) [Compound 66], the “Plant response rating, Dayflower, VA” value (dayflower, VA; 16 g ai/ha) was 0, the “Plant response rating, Dayflower, VA” value (dayflower, VA; 31 g ai/ha) was 0 and the “Plant response rating, Dayflower, VA” value (dayflower, VA; 62 g ai/ha) was 0. For the same compound, the “Plant response rating, Dayflower, VA” value (dayflower, VA; 125 g ai/ha) was 0, the “Plant response rating, Dayflower, VA” value (dayflower, VA; 250 g ai/ha) was 0 and the “Plant response rating, Waterhemp” value (waterhemp; 16 g ai/ha) was 0. The “Plant response rating, Waterhemp” value (waterhemp; 31 g ai/ha) was 0, the “Plant response rating, Waterhemp” value (waterhemp; 62 g ai/ha) was 0 and the “Plant response rating, Waterhemp” value (waterhemp; 125 g ai/ha) was 0. For the same compound, the “Plant response rating, Waterhemp” value (waterhemp; 250 g ai/ha) was 0.
In the case of O=C1NCC(c2ccc(C(F)(F)F)cc2)C1C(=O)Nc1ccc(F)c(F)c1F (centres unmarked) [Compound 232], the “Plant response rating, Dayflower, VA” value (dayflower, VA; 31 g ai/ha) was 0, the “Plant response rating, Dayflower, VA” value (dayflower, VA; 62 g ai/ha) was 0 and the “Plant response rating, Dayflower, VA” value (dayflower, VA; 125 g ai/ha) was 0. For the same compound, the “Plant response rating, Dayflower, VA” value (dayflower, VA; 250 g ai/ha) was 10, the “Plant response rating, Waterhemp” value (waterhemp; 31 g ai/ha) was 35 and the “Plant response rating, Waterhemp” value (waterhemp; 62 g ai/ha) was 80. The “Plant response rating, Waterhemp” value (waterhemp; 125 g ai/ha) was 85 and the “Plant response rating, Waterhemp” value (waterhemp; 250 g ai/ha) was 95.
